# Reference: patent US11299472B2, “Fumarate salt of (R)-3-(1-(2,3-dichloro-4-(pyrazin-2-yl)phenyl)-2,2,2- trifluoroethyl)-1-methyl-1-(1-methylpiperidin-4-yl) urea, methods of preparation, and uses thereof” (Helsinn Healthcare SA, priority 2017, dated 2022)
# What was measured:
# [1] = Rat pharmacokinetic study, single oral HM04 fumarate salt 3, 10, 30 mg/kg (Example 10); type: in vivo, male Sprague Dawley rats
# Experimental: (§1) The pharmacokinetics of HM04 in plasma after single oral administration of HM04 fumarate salt to 6-week old male Sprague Dawley rats and male Beagle dogs (1-5 years of age) was investigated. Test formulations of 0.6 mg/mL, 2 mg/mL, and 6 mg/mL HM04 fumarate salt (based on weight of the free base) were prepared in 5% glucose solution. Doses of 3, 10, and 30 mg/kg HM04 fumarate salt (based on weight of the free base) were administered by gastric gavage as a 5 mL/kg dose volume of each of the three test formulations. Four animals were in each dose group. The formulation was administered to the dogs in fasting conditions with food provided three hours post-dosing.
# A comparison of the plasma concentration of HM04 (ng/mL) in rats over time is provided in FIG. 19 and a summary of the pharmacokinetic analysis is provided in Table 5, below. […] The standard deviation associated with the mean oral bioavailability was calculated according to the formula: SDq=[^2√{square root over ((my^2·SDx^2+mx^2−SDy^2))}]/my^2 where q=mean bioavailability; mx=oral dose-normalized mean AUC, and my=IV dose-normalized mean AUC.
# (§2) Plasma HM04 concentrations were measured by LC-MS/MS following protein precipitation in the 96-well plate format. At the time of analysis samples were thawed out at ambient temperature. Aliquots of 25 μL of rat or dog K3EDTA plasma were spiked with 300 μL of internal standard (25 ng/mL of HM04-d8 in acetonitrile). After gentle vortex mixing for 5 minutes and centrifugation at 2010 g for 15 minutes at 4° C., an aliquot of 100 μL of the organic phase was transferred into a fresh 96-well polypropylene plate, using a P3-Evolution robotic system (Perkin Elmer). Following dilution with 100 μL of […] ammonium formate pH 3.5, an aliquot of 10 μL was injected into the LC-MS/MS system.
# [2] = Dog pharmacokinetic study, single oral HM04 fumarate salt 3, 10, 30 mg/kg (Example 10); type: in vivo, male Beagle dogs
# Experimental: as §1
# Oral absolute bioavailability at 3 mg/kg was calculated from the ratio of individual oral AUC∞ to the individual AUC∞ values determined following intravenous administration of 3 mg/kg HM04 fumarate salt (based on weight of the free base) to the same four male Beagle dogs.
# Oral absolute bioavailability at 10 mg/kg was calculated from the ratio of individual oral AUC∞ to the individual AUC∞ values determined following intravenous administration of 10 mg/kg HM04 fumarate salt (based on weight of the free base) to the same four male Beagle dogs.
# as §2
smiles,measurement,setting,value
"CN1CCC(N(C)C(=O)N[C@H](c2ccc(-c3cnccn3)c(Cl)c2Cl)C(F)(F)F)CC1 [HM04, (R)-3-(1-(2,3-dichloro-4-(pyrazin-2-yl)phenyl)-2,2,2-trifluoroethyl)-1-methyl-1-(1-methylpiperidin-4-yl)urea]",bioavailability,"[1]; male, Sprague Dawley, plasma, oral doses of 3 and 10 mg/kg",40 to 50%
same,exposure to HM04 versus dose,"[1]; oral 3, 10, 30 mg/kg",more than a proportional increase at 30 mg/kg
same,detectable pre-dose concentrations of HM04,"[2]; 3 mg/kg oral, three of the four dogs, range",5.15 to 8.31 ng/mL
same,detectable pre-dose concentration,"[2]; oral 10 mg/kg, Dog 2",8.60 ng/mL
